Data from the NIST ThermoML archive (doi:10.1016/j.jct.2017.11.002).
± gives the expanded uncertainty stated by the source.

Columns and labels:
[1] = molar enthalpy of vaporization or sublimation; details: 298.15 K; Crystal; Static calorimetry
[2] = Crystal, Calculated from knudsen effusion weight loss

SMILES | molar enthalpy [1] [kcal/mol] | vapor or sublimation pressure ([2]; 394.16 K) [kPa] | vapor or sublimation pressure ([2]; 396.13 K) [kPa] | vapor or sublimation pressure ([2]; 398.11 K) [kPa] | vapor or sublimation pressure ([2]; 400.15 K) [kPa] | vapor or sublimation pressure ([2]; 402.1 K) [kPa] | vapor or sublimation pressure ([2]; 404.1 K) [kPa] | vapor or sublimation pressure ([2]; 406.15 K) [kPa] | vapor or sublimation pressure ([2]; 408.13 K) [kPa] | vapor or sublimation pressure ([2]; 410.11 K) [kPa] | vapor or sublimation pressure ([2]; 412.16 K) [kPa] | vapor or sublimation pressure ([2]; 414.11 K) [kPa] | vapor or sublimation pressure ([2]; 416.12 K) [kPa]
O=c1c2ccccc2[nH]c2ccccc12 [9(10H)-acridinone] | 31.9 ± 1 | – | – | – | – | – | – | – | – | – | – | – | –
Cn1c2ccccc2c(=O)c2ccccc21 [N-methylacridone] | 29.6 ± 0.693 | 0.0001465 ± 6e-05 | 0.0001788 ± 6e-05 | 0.0002123 ± 6.1e-05 | 0.0002508 ± 6.1e-05 | 0.0003035 ± 6.1e-05 | 0.0003591 ± 6.1e-05 | 0.0004322 ± 6.2e-05 | 0.000516 ± 6.3e-05 | 0.0005963 ± 6.4e-05 | 0.0007321 ± 6.5e-05 | 0.0008616 ± 6.7e-05 | 0.00101 ± 9.3e-05
